Results reported in US10045983B2, “Heteroaryl pyridone and aza-pyrodine compounds” (Genentech, Inc., priority 2011, dated 2018).
Like-named read-outs stand apart in the source and are kept apart here.

Assay: CD69 Whole Blood Assay (CD69 Hu Blood FACS)
Type: cell-based, human
Conditions: Lymphocyte, human whole blood, anti-IgM activated B lymphocytes, FACS, IC70
How it was run: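 Human whole blood stimulated by crosslinking surface IgM with goat F(ab′)2 anti-human IgM; inhibition of CD69 expression on B lymphocytes measured by flow cytometry.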

[1] = Table 1, read-out: CD69 Hu Blood FACS IC70
[2] = Table 2 (unit inferred), read-out: CD69 Hu Blood FACS (IC70)

Row | Structure (SMILES) | IC70 [1] | IC70 [2]
1 | Cn1cc(-c2ccnc(N3CCn4c(cc5c4CCCC5)C3=O)c2CO)cc(Nc2ccc(N3CCN(C4COC4)CC3(C)C)cn2)c1=O [Example 187, 2-(4-(5-(5-(2,2-dimethyl-4-(oxetan-3-yl)piperazin-1-yl)pyridin-2-ylamino)-1-methyl-6-oxo-1,6-dihydropyridin-3-yl)-3-(hydroxymethyl)pyridin-2-yl)-3,4,6,7,8,9-hexahydropyrazino[1,2-a]indol-1(2H)-one] | 0.0451 µM | –
2 | Cn1cc(-c2ccnc(N3CCn4c(cc5c4CC(C)(C)C5)C3=O)c2CO)cc(Nc2cnccn2)c1=O [Example 188, 2-[3′-Hydroxymethyl-1-methyl-6-oxo-5-(pyrazin-2-ylamino)-1,6-dihydro-[3,4′]bipyridinyl-2′-yl]-7,7-dimethyl-3,4,7,8-tetrahydro-2H,6H-cyclopenta[4,5]pyrrolo[1,2-a]pyrazin-1-one] | 0.601 µM | –
3 | Cn1cc(-c2ccnc(N3CCn4c(cc5c4CCCC5)C3=O)c2CO)cc(Nc2cnc(N3CCN(C4COC4)CC3)cn2)c1=O [Example 189, 2-(3-(hydroxymethyl)-4-(1-methyl-5-(5-(4-(oxetan-3-yl)piperazin-1-yl)pyrazin-2-ylamino)-6-oxo-1,6-dihydropyridin-3-yl)pyridin-2-yl)-3,4,6,7,8,9-hexahydropyrazino[1,2-a]indol-1(2H)-one] | 0.652 µM | –
4 | Cn1cc(-c2ccnc(N3CCn4c(cc5c4CCCC5)C3=O)c2CO)cc(Nc2ccc(N3CCN(C4COC4)CC3(C)C)cn2)c1=O [Example 190, 2-[4-[5-[[5-[2,2-dimethyl-4-(oxetan-3-yl)piperazin-1-yl]-2-pyridyl]amino]-1-methyl-6-oxo-3-pyridyl]-3-(hydroxymethyl)-2-pyridyl]-3,4,6,7,8,9-hexahydropyrazino[1,2-a]indol-1-one] | – | 0.0704 µM
5 | C[C@H]1CN(C2COC2)CCN1c1ccc(Nc2cc(-c3ccnc(-n4ncc5c6c(sc5c4=O)CCCC6)c3CO)cn(C)c2=O)nc1 [Example 191, 5-[3-(Hydroxymethyl)-4-[1-methyl-5-({5-[(2S)-2-methyl-4-(oxetan-3-yl)pipera-zin-1-yl]pyridin-2-yl}amino)-6-oxo-1,6-dihydropyridin-3-yl]pyridin-2-yl]-8-thia-4,5-diazatricyclo[7.4.0.0^2,7]trideca-1(9),2(7),3-trien-6-one] | – | 0.0435 µM
6 | C[C@H]1CN(C2COC2)CCN1c1ccc(Nc2cc(-c3ccnc(-n4ncc5c6n(cc5c4=O)CCCC6)c3CO)cn(C)c2=O)nc1 [Example 192, 3-[3-(hydroxymethyl)-4-[1-methyl-5-[[5-[(2S)-2-methyl-4-(oxetan-3-yl)piperazin-1-yl]-2-pyridyl]amino]-6-oxo-3-pyridyl]-2-pyridyl]-7,8,9,10-tetrahydropyridazino[4,5-a]indolizin-4-one] | – | 1.1 µM
7 | C[C@H]1CN(C2COC2)CCN1c1ccc(Nc2cc(-c3ccnc(-n4ncc5c(cc6n5CCCC6)c4=O)c3CO)cn(C)c2=O)nc1 [Example 193, 2-[3-(hydroxymethyl)-4-[1-methyl-5-[[5-[(2S)-2-methyl-4-(oxetan-3-yl)piperazin-1-yl]-2-pyridyl]amino]-6-oxo-3-pyridyl]-2-pyridyl]-6,7,8,9-tetrahydropyridazino[4,5-b]indolizin-1-one] | – | 0.0995 µM
8 | Cn1cc(-c2ccnc(-n3ncc4c5c(sc4c3=O)CCCC5)c2CO)cc(Nc2cnccn2)c1=O [Example 194, 3-[3-(hydroxymethyl)-4-[1-methyl-6-oxo-5-(pyrazin-2-ylamino)-3-pyridyl]-2-pyridyl]-6,7,8,9-tetrahydrobenzothiopheno[2,3-d]pyridazin-4-one] | – | 1.2 µM
9 | CN1CCn2nc(Nc3cc(-c4ccnc(-n5ccn6c7c(cc6c5=O)CCCC7)c4CO)cn(C)c3=O)cc2C1 [Example 195, 2-[3-(hydroxymethyl)-4-[1-methyl-5-[(5-methyl-6,7-dihydro-4H-pyrazolo[1,5-a]pyrazin-2-yl)amino]-6-oxo-3-pyridyl]-2-pyridyl]-6,7,8,9-tetrahydropyrazino[1,2-a]indol-1-one] | – | 0.101 µM
